# Assay results: patent US9925398B2, “Angiogenic peptide” (NOVACELL TECHNOLOGY INC., priority 2008, dated 2018)
# Where a SMILES comes first, the peptide text is derived from it. [ ]: non-standard residue; d: D form.
# System: MS-1 cells
# Experiment: [Ca2+]i mobilization assay in MS-1 cells
# Assay type: cell-based, murine
# Conditions: three experiments, read-out: Mean EC50 (μM), dose-dependent changes in intracellular Ca2+
# Procedure: Cells were incubated with 4 μM Fura-2 AM and 250 μM sulfinpyrazone in serum-free DMEM medium at 37° C. for 30 min with continuous stirring. The cells were then washed with Locke's solution (M. Faehling, et al., FASEB J 16 (2002), pp. 1805-1807) and diluted to 2×10^6 cells/mL. 50 μL aliquots of cell suspension were added to each well of a 96-well plate, and the change in fluorescence ratio was determined at dual excitation wavelengths of 340 and 380 nm and emission wavelength of 500 nm following addition of peptides. Plates were read immediately following the addition of peptide pools, resulting in a time delay of approximately 5 s between peptide addition and detection by the FLEXstation (Molecular Devices). Negative and positive controls were run simultaneously with test samples to ensure that all samples were subjected to identical conditions. The calibration of the fluorescence ratio in terms of [Ca^2+]i was performed according to Grynkiewicz et al. J Biol Chem 260 (1985), pp. 3440-3450.
# To identify peptides that stimulate intracellular calcium mobilization in murine endothelial cells (MS-1 cells), the inventors screened 114 pools of C-terminally amidated synthetic hexapeptides.
row,Compound,EC50
1,"CC(C)C[C@H](NC(=O)[C@H](CCCCN)NC(=O)[C@H](Cc1ccccc1)NC(=O)[C@@H](N)CO)C(=O)N[C@@H](CCCNC(=N)N)C(=O)N[C@@H](Cc1ccc(O)cc1)C(=O)O [SEQ ID NO 1, SFKLRY-COOH] (H-SFKLRY-OH; N-terminus assumed)",> 10 µM
2,"CC(C)C[C@H](NC(=O)[C@H](CCCCN)NC(=O)[C@H](Cc1ccccc1)NC(=O)[C@@H](N)CO)C(=O)N[C@@H](CCCNC(=N)N)C(=O)N[C@@H](Cc1ccc(O)cc1)C(N)=O [SEQ ID NO 2, SFKLRY-NH2] (H-SFKLRY-NH2; N-terminus assumed)",1.21 µM
3,"CC(C)C[C@H](NC(=O)[C@H](CCCCN)NC(=O)[C@H](Cc1ccccc1)NC(=O)[C@@H](N)CO)C(=O)N[C@H](CCCNC(=N)N)C(=O)N[C@@H](Cc1ccc(O)cc1)C(N)=O [SEQ ID NO 7, SFKLrY-NH2(d-form)] (H-SFKL[dR]Y-NH2; N-terminus assumed)",> 100 µM
4,"CC(C)C[C@H](NC(=O)[C@H](CCCCN)NC(=O)[C@H](Cc1ccccc1)NC(=O)[C@@H](N)CO)C(=O)N[C@@H](CCCNC(=N)N)C(=O)N[C@H](Cc1ccc(O)cc1)C(N)=O [SEQ ID NO 8, SFKLRy-NH2(d-form)] (H-SFKLR[dY]-NH2; N-terminus assumed)",1.14 µM
5,"CC(C)C[C@H](NC(=O)[C@H](CCCCN)NC(=O)[C@H](Cc1ccccc1)NC(=O)[C@@H](N)CO)C(=O)N[C@@H](CCCNC(=N)N)C(N)=O [SEQ ID NO 12, SFKLR-NH2] (H-SFKLR-NH2; N-terminus assumed)",6.19 µM
6,"CC(C)C[C@H](NC(=O)[C@H](CCCCN)NC(=O)[C@H](Cc1ccccc1)NC(=O)[C@@H](N)CO)C(N)=O [SEQ ID NO 13, SFKL-NH2] (H-SFKL-NH2; N-terminus assumed)",> 50 µM
7,"CC(C)C[C@H](NC(=O)[C@H](CCCNC(=N)N)NC(=O)[C@H](Cc1ccccc1)NC(=O)[C@@H](N)CO)C(=O)N[C@@H](CCCNC(=N)N)C(=O)N[C@@H](Cc1ccc(O)cc1)C(N)=O [SEQ ID NO 15, SFRLRY-NH2] (H-SFRLRY-NH2; N-terminus assumed)",0.97 µM
8,"CC(C)C[C@H](NC(=O)[C@H](CCCCN)NC(=O)[C@H](Cc1ccccc1)NC(=O)[C@@H](N)CO)C(=O)N[C@@H](CCCNC(=N)N)C(=O)N[C@@H](CCCNC(=N)N)C(N)=O [SEQ ID NO 16, SFKLRR-NH2] (H-SFKLRR-NH2; N-terminus assumed)",2.66 µM
9,"CC[C@H](C)[C@H](NC(=O)[C@H](Cc1ccccc1)NC(=O)[C@@H](N)CO)C(=O)N[C@@H](CC(C)C)C(=O)N[C@@H](CCCNC(=N)N)C(=O)N[C@@H](Cc1ccc(O)cc1)C(N)=O [SEQ ID NO 17, SFILRY-NH2] (H-SFILRY-NH2; N-terminus assumed)",0.99 µM
10,"CC[C@H](C)[C@H](NC(=O)[C@H](Cc1ccccc1)NC(=O)[C@@H](N)CO)C(=O)N[C@@H](CC(C)C)C(=O)N[C@@H](CCCNC(=N)N)C(=O)N[C@@H](CCCNC(=N)N)C(N)=O [SEQ ID NO 18, SFILRR-NH2] (H-SFILRR-NH2; N-terminus assumed)",0.97 µM
11,"CC(C)C[C@H](NC(=O)[C@H](CCCCN)NC(=O)[C@H](Cc1ccccc1)NC(=O)[C@@H](N)CO)C(=O)N[C@@H](CCCNC(=N)N)C(=O)N[C@@H](Cc1c[nH]c2ccccc12)C(N)=O [SEQ ID NO 19, SFKLRW-NH2] (H-SFKLRW-NH2; N-terminus assumed)",2.37 µM
12,"CC[C@H](C)[C@H](NC(=O)[C@H](Cc1ccccc1)NC(=O)[C@@H](N)CO)C(=O)N[C@@H](CC(C)C)C(=O)N[C@@H](CCCNC(=N)N)C(=O)N[C@@H](Cc1c[nH]c2ccccc12)C(N)=O [SEQ ID NO 20, SFILRW-NH2] (H-SFILRW-NH2; N-terminus assumed)",1.98 µM
13,"CC(C)C[C@H](NC(=O)[C@H](CCCCN)NC(=O)[C@H](Cc1ccccc1)NC(=O)[C@@H](N)CO)C(=O)N[C@@H](CCCNC(=N)N)C(=O)N[C@@H](Cc1ccccc1)C(N)=O [SEQ ID NO 21, SFKLRF-NH2] (H-SFKLRF-NH2; N-terminus assumed)",3.16 µM
14,"CC[C@H](C)[C@H](NC(=O)[C@H](Cc1ccccc1)NC(=O)[C@@H](N)CO)C(=O)N[C@@H](CC(C)C)C(=O)N[C@@H](CCCNC(=N)N)C(=O)N[C@@H](Cc1ccccc1)C(N)=O [SEQ ID NO 22, SFILRF-NH2] (H-SFILRF-NH2; N-terminus assumed)",2.01 µM
15,"CC(C)C[C@H](NC(=O)[C@H](CCCCN)NC(=O)[C@H](Cc1ccccc1)NC(=O)[C@@H](N)CO)C(=O)N[C@@H](CCCNC(=N)N)C(=O)N[C@@H](Cc1c[nH]cn1)C(N)=O [SEQ ID NO 23, SFKLRH-NH2] (H-SFKLRH-NH2; N-terminus assumed)",3.6 µM
16,"CC(C)C[C@H](NC(=O)[C@H](CCCCN)NC(=O)[C@H](Cc1ccccc1)NC(=O)[C@@H](N)[C@@H](C)O)C(=O)N[C@@H](CCCNC(=N)N)C(=O)N[C@@H](Cc1ccc(O)cc1)C(N)=O [SEQ ID NO 24, TFKLRY-NH2] (H-TFKLRY-NH2; N-terminus assumed)",3.87 µM

# System: MS-1 cells
# Experiment: Suppression of SFKLRY-NH2-induced [Ca2+]i increase in MS-1 cells by inhibitors
# Assay type: cell-based, murine
# Conditions: 100 ng/mL for 2 h prior to SFKLRY-NH2
# Procedure: FIGS. 3A-3B show BAPTA, U73122 and PTX suppressed SFKLRY-NH2-induced [Ca^2+]i increase in MS-1 cells. […] (A) The cells were pre-incubated in DMEM containing 10 μM BAPTA-AM with Fluo-4/AM for 30 min at 37° C. Cells were suspended in Ca^2+-free Locke's solution containing 0.2 mM EGTA and treated with indicated concentrations of SFKLRY-NH2 (SEQ ID NO: 2). The change in fluorescence intensity was determined with excitation at 488 nm and the emission at 520 nm. (B) Cells were preincubated with or without U73122 (10 μM), U73433 (10 μM) for 30 min, and PTX (100 ng/mL) for 2 h with Fura-2, respectively. Fura-2-loaded cells were then suspended in Ca^2+-free Locke's solution and then treated with 1 μM SFKLRY-NH2 (SEQ ID NO: 2). The data are represent means±3 independent experiments each performed in triplicate. *P<0.05.
row,Compound,effect on peptide-dependent intracellular Ca2+ mobilization
1,Pertussis toxin [PTX],remarkably attenuated

# Same assay, conditions: 10 μM preloading; Ca2+-free Locke's solution with 0.2 mM EGTA
row,Compound,effect on peptide-induced [Ca2+]i increase
1,"CC(=O)OCOC(=O)CN(CC(=O)OCOC(C)=O)c1ccccc1OCCOc1ccccc1N(CC(=O)OCOC(C)=O)CC(=O)OCOC(C)=O [BAPTA-AM, 1,2-bis(2-aminophenoxy)ethane-N,N,N′,N′-tetraacetoxymethyl ester]",completely abolished

# Same assay, conditions: 10 μM, 30 min preincubation; 1 μM SFKLRY-NH2
row,Compound,effect on peptide-induced intracellular calcium mobilization
1,COc1ccc2c(c1)CC[C@@H]1[C@@H]2CC[C@]2(C)[C@@H](NCCCCCCN3C(=O)C=CC3=O)CC[C@@H]12 [U73122],completely abolished
2,COc1ccc2c(c1)CC[C@@H]1[C@@H]2CC[C@]2(C)[C@@H](NCCCCCCN3C(=O)CCC3=O)CC[C@@H]12 [U73433],little inhibitory effect

# System: Rat aortic explants
# Experiment: Aortic ring assay (vessel sprouting ex vivo)
# Assay type: cell-based
# Conditions: 50 ng/mL co-treatment with SFKLRY-NH2 1 μM; 7 days
# Procedure: The method developed by Nicosia and Ottinetti in In Vitro Cell Dev Biol 26 (1990), pp. 119-128 was used with some modifications. Aortas were harvested from 6-week-old Sprague-Dawley rats. After removing the surrounding fibro-adipose tissues, the rings were immersed in Matrigel in wells within culture dishes. The aortic rings were cultured (5% CO2, 37° C.) in serum-free M199 containing SFKLRY-NH2 (SEQ ID NO: 2), S1P, FYSRLK-NH2, or VEGF in the presence or absence of PTX or U73122. On day 7, sprouting from aortic explants was measured.
# To address whether SFKLRY-NH2 (SEQ ID NO: 2) plays a role in sprouting of vascular endothelial cells ex vivo, aortic rings were analyzed in the presence of various stimuli including 1 μM SFKLRY-NH2 (SEQ ID NO: 2), 10 ng/mL VEGF, 10 nM S1P, and 10% FBS. […] Rat aortic explants in Matrigel were incubated with M-199 harboring SFKLRY-NH2 (SEQ ID NO: 2) (1 μM), FYSRLK-NH2 (1 μM), S1P (10 nM), VEGF (10 ng/mL), SFKLRY-NH2 (SEQ ID NO: 2) (1 μM) with U73122 (10 μM) or PTX (50 ng/mL), or 10% FBS and photographed after incubation for 7 days. Three independent experiments were then conducted, each in duplicate.
row,Compound,effect on vessel sprouting promoted by SFKLRY-NH2
1,Pertussis toxin [PTX],markedly attenuated

# Same assay, conditions: 10 μM co-treatment with SFKLRY-NH2 1 μM; 7 days
row,Compound,effect on vessel sprouting promoted by SFKLRY-NH2
1,COc1ccc2c(c1)CC[C@@H]1[C@@H]2CC[C@]2(C)[C@@H](NCCCCCCN3C(=O)C=CC3=O)CC[C@@H]12 [U73122],markedly attenuated
